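These data come from cells grown in 96-well plates and exposed to compound for 48 hours at five concentrations. GI50 = concentration required for 50% inhibition of growth. At the TGI there is no net growth.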
Assays:
Assay in all cases: NCI anticancer screen, dose series, 48 h
SNB-75 CNS = tested on: SNB-75 CNS
SN12C renal = tested on: SN12C renal
TK-10 renal = tested on: TK-10 renal
SK-MEL-28 melanoma = tested on: SK-MEL-28 melanoma
A498 renal = tested on: A498 renal
SF-268 CNS = tested on: SF-268 CNS
SR leukemia = tested on: SR leukemia
A549 NSCLC = tested on: A549 NSCLC
SK-MEL-2 melanoma = tested on: SK-MEL-2 melanoma
MDA-MB-435 = tested on: MDA-MB-435

| SMILES | GI50 (SNB-75 CNS) | TGI (SNB-75 CNS) | GI50 (SN12C renal) | TGI (SN12C renal) | GI50 (TK-10 renal) | TGI (TK-10 renal) | GI50 (SK-MEL-28 melanoma) | TGI (SK-MEL-28 melanoma) | GI50 (A498 renal) | TGI (A498 renal) | GI50 (SF-268 CNS) | TGI (SF-268 CNS) | GI50 (SR leukemia) | TGI (SR leukemia) | GI50 (A549 NSCLC) | TGI (A549 NSCLC) | GI50 (SK-MEL-2 melanoma) | TGI (SK-MEL-2 melanoma) | GI50 (MDA-MB-435) | TGI (MDA-MB-435) |
| --- | --- | --- | --- | --- | --- | --- | --- | --- | --- | --- | --- | --- | --- | --- | --- | --- | --- | --- | --- | --- |
| COc1ccc2c(c1)C(=O)c1c-2c(=O)n(CCCN(C)C)c2cc(OC)c(OC)cc12 | 10.1 µM | 23 µM | 2.18 µM | 16.6 µM | 15.5 µM | 29.3 µM | 17.9 µM | 32 µM | 15 µM | > 100 µM | 0.427 µM | 15.2 µM | 0.128 µM | 7.63 µM | 7.03 µM | 22 µM | > 100 µM | > 100 µM | 11.3 µM | 23.3 µM |
| C=C1C(=O)O[C@H]2[C@H]1CC/C(COC(=O)NCc1c[nH]c3ccc(F)cc13)=C\CC[C@@]1(C)O[C@@H]21 | 1.33 µM | 2.76 µM | 1.32 µM | 2.84 µM | 1.58 µM | 3 µM | 1.63 µM | 3.24 µM | 3.46 µM | 12.9 µM | 1.81 µM | 3.9 µM | 0.266 µM | 5.85 µM | 3.17 µM | 10.9 µM | 1.5 µM | 3.39 µM | 1.31 µM | 3.1 µM |
| O=C1/C(=C/c2ccccc2O)N=C(c2ccccc2)N1c1cc(C(F)(F)F)ccc1Cl | 18.1 µM | 37.7 µM | 53.6 µM | > 100 µM | 18.9 µM | 43.7 µM | > 100 µM | > 100 µM | 59.4 µM | > 100 µM | 26.2 µM | 97.4 µM | 5.51 µM | > 100 µM | 75.7 µM | > 100 µM | > 100 µM | > 100 µM | 22.1 µM | > 100 µM |
| CC(C)(C)c1cc(C(=O)O)c2c(c1)C(=O)OC2(c1ccccc1)c1ccccc1C(=O)O (configuration not stated) | – | > 100 µM | – | > 100 µM | – | > 100 µM | – | > 100 µM | > 100 µM | > 100 µM | – | > 100 µM | – | > 100 µM | – | > 100 µM | – | > 100 µM | > 100 µM | > 100 µM |
| C[C@H]1CN(C2COC2)CCN1c1ccc(Nc2cc(-c3ccnc(N4CCn5c(cc6c5CC(C)(C)C6)C4=O)c3CO)cn(C)c2=O)nc1 | 15.5 µM | > 100 µM | 49.9 µM | > 100 µM | 38.7 µM | > 100 µM | 39.8 µM | > 100 µM | 10.3 µM | 33.9 µM | 29.5 µM | > 100 µM | 23.1 µM | > 100 µM | 56.8 µM | > 100 µM | 74.2 µM | > 100 µM | 26.4 µM | > 100 µM |
| COc1cc(-c2ncn(/C=C\c3nnco3)n2)cc(C(F)(F)F)c1 | 0.0863 µM | 4.73 µM | 0.723 µM | > 83.2 µM | 0.726 µM | 23 µM | 0.125 µM | > 34.6 µM | 0.0421 µM | 0.619 µM | 0.0891 µM | 23.9 µM | 0.021 µM | > 100 µM | 0.109 µM | > 68 µM | 0.0617 µM | 1.15 µM | 0.0894 µM | 3.33 µM |

Reference: PubChem BioAssay (NCI)
